From ChEMBL document CHEMBL3621075, “Discovery of benzothiazine derivatives as novel, orally-active anti-epileptic drug candidates with broad anticonvulsant effect” (Bioorg Med Chem Lett, 2015)
Activity calls are given as the source filed them.

Key:
Mus musculus [1] = assay: Anticonvulsant activity in mouse assessed as protection against maximal electroshock-induced seizure at 400 mg/kg; format: functional, organism-based
[2] = Permeability of compound at pH 7.4 by PAMPA assay; format: physicochemical; settings: read-out: permeability
[3] = Permeability of compound at pH 5.0 by PAMPA assay; format: physicochemical; settings: read-out: permeability
[4] = Metabolic stability in rat liver microsome assessed as recovery of parent compound after 30 mins in presence NADPH; format: ADME; settings: liver microsomes, read-out: Drug recovery
Mus musculus [5] = organism: Mus musculus; assay: Anticonvulsant activity in mouse assessed as protection against maximal electroshock-induced seizure; format: functional
Mus musculus [6] = assay: Anticonvulsant activity in ip-dosed mouse assessed as protection against subcutaneous pentylenetetrazol-induced seizure; format: functional; settings: sc
Mus musculus [7] = assay: Anticonvulsant activity in mouse assessed as protection against maximal electroshock-induced seizure at 100 mg/kg; format: functional, organism-based
Mus musculus [8] = assay: Anticonvulsant activity in mouse assessed as protection against subcutaneous pentylenetetrazol-induced seizure at 100 mg/kg; format: functional, organism-based
Mus musculus [9] = assay: Anticonvulsant activity in mouse assessed as protection against maximal electroshock-induced seizure at 50 mg/kg; format: functional, organism-based
Mus musculus [10] = assay: Anticonvulsant activity in mouse assessed as protection against maximal electroshock-induced seizure at 25 mg/kg; format: functional, organism-based
Rattus norvegicus [11] = assay: Anticonvulsant activity in rat amygdala kindling model assessed as change in after-discharge threshold at 30 mg/kg, po; format: functional
Rattus norvegicus [12] = assay: Anticonvulsant activity in rat amygdala kindling model assessed as change in after-discharge threshold at 100 mg/kg, po; format: functional
Rattus norvegicus [13] = assay: Anticonvulsant activity in rat amygdala kindling model assessed as change in after-discharge duration at 30 mg/kg, po; format: functional
Rattus norvegicus [14] = assay: Anticonvulsant activity in rat amygdala kindling model assessed as change in after-discharge duration at 100 mg/kg, po; format: functional
Rattus norvegicus [15] = assay: Anticonvulsant activity in rat amygdala kindling model assessed as decrease in rearing and bilateral forelimb clonus seizure 100 mg/kg, po; format: functional, organism-based
Mus musculus [16] = assay: Anticonvulsant activity in mouse assessed as protection against subcutaneous pentylenetetrazol-induced seizure at 400 mg/kg; format: functional, organism-based

Papp [2] | Papp [3] | remaining at 0.5 h [4] | Structure (SMILES) | Activity (Mus musculus [1]) | also measured
– | – | – | CCN1C(C(=O)NC2CC2)=C(Cl)c2ccccc2S1(=O)=O | Active | –
12 ×10⁻⁶ cm/s | 12 ×10⁻⁶ cm/s | > 90% | CN1C(C(=O)NC2CC2)=C(C2CC2)c2ccccc2S1(=O)=O | Active | –
– | – | – | NC(=O)N1c2ccccc2C=Cc2ccccc21 [CARBAMAZEPINE] | – | ED50 (Mus musculus [5]): 13 mg/kg; ED50 (Mus musculus [6]): > 100 mg/kg
– | – | – | CCNC(=O)C1=C(Cl)c2ccccc2S(=O)(=O)N1C | – | Activity (Mus musculus [7]): Active; Activity (Mus musculus [8]): Active; Activity (Mus musculus [9]): Active; Activity (Mus musculus [10]): inactive; Activity (Rattus norvegicus [11]): 10%; Activity (Rattus norvegicus [12]): 40.5%; Activity (Rattus norvegicus [13]): -20%; Activity (Rattus norvegicus [14]): -18.2%; Activity (Rattus norvegicus [15]): Active
– | – | – | CC(=O)NCCNC(=O)C1=Cc2ccccc2S(=O)(=O)N1C | inactive | –
12 ×10⁻⁶ cm/s | 12 ×10⁻⁶ cm/s | > 90% | CN1C(C(=O)NC2CC2)=C(Cl)c2ccccc2S1(=O)=O | Active | –
5.9 ×10⁻⁶ cm/s | 5.9 ×10⁻⁶ cm/s | > 90% | CN1C(C(=O)NC2CC2)=Cc2ccccc2S1(=O)=O | Active | Activity (Mus musculus [7]): Active; Activity (Mus musculus [16]): Active
– | – | – | CN(C)C(=O)C1=Cc2ccccc2S(=O)(=O)N1C | Active | –
5.9 ×10⁻⁶ cm/s | 5.9 ×10⁻⁶ cm/s | > 90% | CCCNC(=O)C1=Cc2ccccc2S(=O)(=O)N1C | Active | Activity (Mus musculus [9]): inactive; Activity (Mus musculus [16]): Active
– | – | – | CCC1=C(C(=O)NC2CC2)N(C)S(=O)(=O)c2ccccc21 | Active | –
– | – | – | CN1C(C(=O)NC2CC2)=C(c2ccccc2)c2ccccc2S1(=O)=O | – | Activity (Mus musculus [16]): inactive
5.9 ×10⁻⁶ cm/s | 5.9 ×10⁻⁶ cm/s | > 90% | CCNC(=O)C1=Cc2ccccc2S(=O)(=O)N1C | Active | Activity (Mus musculus [16]): Active
– | – | – | O=C(NC1CC1)C1=C(Cl)c2ccccc2S(=O)(=O)N1Cc1ccccc1 | inactive | –
5.9 ×10⁻⁶ cm/s | 5.9 ×10⁻⁶ cm/s | > 90% | CNC(=O)C1=Cc2ccccc2S(=O)(=O)N1C | Active | –
12 ×10⁻⁶ cm/s | 12 ×10⁻⁶ cm/s | > 90% | CC1=C(C(=O)NC2CC2)N(C)S(=O)(=O)c2ccccc21 | Active | Activity (Mus musculus [7]): inactive
– | – | – | CN1C(C(=O)NCC(F)F)=Cc2ccccc2S1(=O)=O | Active | –
– | – | – | NS(=O)(=O)Cc1noc2ccccc12 [ZONISAMIDE] | – | ED50 (Mus musculus [5]): 20 mg/kg; ED50 (Mus musculus [6]): > 500 mg/kg; Activity (Rattus norvegicus [11]): 5.1%; Activity (Rattus norvegicus [12]): 45.9%; Activity (Rattus norvegicus [13]): 7%; Activity (Rattus norvegicus [14]): -37.6%
– | – | – | O=C1NC(=O)C(c2ccccc2)(c2ccccc2)N1 [PHENYTOIN] | – | ED50 (Mus musculus [5]): 8 mg/kg; ED50 (Mus musculus [6]): > 300 mg/kg
– | – | – | CC(C)NC(=O)C1=Cc2ccccc2S(=O)(=O)N1C | Active | Activity (Mus musculus [7]): inactive; Activity (Mus musculus [8]): inactive
